Experimental data reported in PubChem BioAssay AID463211 (Broad Institute, 2010).
Active and inactive are the calls of the source.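 How the source made its calls: active means loss of HeLa cell viability with AC50 at most tenfold above the top tested dose; inconclusive means flat fit with signal drop between 30% and 70%, or poor fit; inactive means AC50 more than tenfold above top tested dose.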

Each molecule was assayed on HeLa viability, ATP luminescence (CellTiterGlo), 48 h (assay: HeLa cell cytotoxicity, dose response, cytotoxicity control for LANA inhibitor project, luminescence (AID 463211)).
O=C(CCCN1C(=O)c2cccc3cccc(c23)C1=O)N1CCN(c2ccccc2)CC1 was tested, and the AC50 was > 35 µM (inactive). In the case of CC(C)(C)C1(C)OC(=O)C(=Cc2ccc(OCC(=O)Nc3ccccc3)cc2)C(=O)O1 (centres undefined), the AC50 is reported as > 35 µM (inactive). In the case of COc1cccc2c1C(=O)c1c(O)c3c(c(O)c1C2=O)CC(O)(C(=O)CO)CC3OC1CC(N)C(O)C(C)O1 (centres undefined), the AC50 is reported as 4.4 µM. CC1=NCCc2c1[nH]c1cc(O)ccc21 was tested, and the AC50 was > 35 µM (inactive). For Cc1n[nH]c(C)c1N1C(=O)c2cccc3c(N4CCCCCC4)ccc(c23)C1=O, the AC50 was > 35 µM (inactive). With Cc1cc(C)c2nc(C(F)(F)F)nc(NCCCN3CCCC3=O)c2c1 the AC50 was > 35 µM (inactive). With Cc1nn(C)c(C)c1N1C(=O)c2cccc3c(N)ccc(c23)C1=O the AC50 was > 35 µM (inactive). Molecule CCCCCCCCCCCCCCCC[n+]1ccc(/C=N/O)cc1 has an AC50 of 11.9 µM. O=S(=O)(Nc1cc(Cl)ccc1N1CCOCC1)c1ccccc1Cl was tested, and the AC50 was > 35 µM (inactive). With Cc1cc2nc3c(=O)n(Cc4ccccc4)c(=O)[nH]c3nc2cc1N the AC50 was > 35 µM (inactive). With CC(C)CSC1=NSC2=NC(=O)/C(=C\c3coc4ccccc4c3=O)C(=N)N12 the AC50 was > 35 µM (inactive). Cc1cc(C)cc(NS(=O)(=O)c2ccc3c(c2)C(C)(C)C(=O)N3C)c1 was tested, and the AC50 was > 35 µM (inactive). Cn1nc(-c2ccccc2)c2nc3ccccc3nc21 was tested, and the AC50 was > 35 µM (inactive). For COc1ccc2c3c(cccc13)C(=O)CC2, the AC50 was 22.3 µM. For O=c1ccc2c(-c3ccccc3)c3ccc(O)cc3oc-2c1, the AC50 was > 35 µM (inactive). In the case of COc1ccc2ccccc2c1C(O)c1nccn1C (centres undefined), the AC50 is reported as > 35 µM (inactive). O=C1c2ccccc2-c2onc3ccc(NCc4ccco4)c1c23 showed an AC50 of 28.5 µM. CC(=O)Oc1ccc2c(c1)Oc1cc(OC(C)=O)ccc1C21OC(=O)c2ccccc21 was tested, and the AC50 was > 35 µM (inactive). Work on O=C1c2ccccc2-c2onc3ccc(NCCCn4ccnc4)c1c23 yielded an AC50 of 32.4 µM. With O=C1CCN2C=Nc3cccc4ccc1c2c34 the AC50 was 8.08 µM. Cc1nn(C)cc1N1C(=O)c2cccc3c(N)ccc(c23)C1=O was tested, and the AC50 was > 35 µM (inactive). With Cc1cccc(N2C(=O)c3cccc4c(N(C)CCO)ccc(c34)C2=O)c1 the AC50 was > 35 µM (inactive). For COc1ccc(C2C=C(c3ccc(Br)cc3)Nc3nc(NS(C)(=O)=O)nn32)cc1 (centres undefined), the AC50 was > 35 µM (inactive). For CCCCCCn1c(=O)[nH]c2nc3cc(N)ccc3nc2c1=O, the AC50 was > 35 µM (inactive). In the case of Cc1ccc(Cl)cc1N1CCN(C(=O)C2CCN(S(C)(=O)=O)CC2)CC1, the AC50 is reported as > 35 µM (inactive). CC1Cc2ccccc2N1C(=O)CSc1ncccn1 (centres undefined) was tested, and the AC50 was > 35 µM (inactive). With CN(C)/C=C1\C=C2C(=O)c3ccccc3N2C1=O the AC50 was > 35 µM (inactive). CC(=O)Nc1cccc(N)c1 was tested, and the AC50 was > 35 µM (inactive). CC(=O)Nc1ccc(-c2cn3ccsc3n2)cc1 was tested, and the AC50 was > 35 µM (inactive).
